# According to patent US20130338106A1, “COMPOUNDS INHIBITING LEUCINE-RICH REPEAT KINASE ENZYME ACTIVITY” (priority 2011, published 2013):
# Molecular target: T1, LRRK2 G2019S mutant kinase (Homo sapiens, UniProt Q5S007, G2019S)
# T1 construct: GST; purchased Invitrogen PV4882
# Assay: LRRK2 G2019S LanthaScreen TR-FRET kinase assay
# Type: biochemical
# Details: LRRK2 G2019S GST-tagged protein, 100 μM ATP, LRRKtide substrate; read-out: IC50 (potency)
# Procedure: Activity of compounds against LRRK2 G2019S mutant kinase function was tested in a LANTHAScreen® assay as follows: Compounds were diluted in 100% DMSO to the desired test concentrations in white, low-volume 384-well plates (PerkinElmer ProxiPlate® PN: 6008280). TR-FRET kinase reactions (10 μL) were performed with 75 nM Fluorescein-ERM (LRRKtide, Invitrogen, PN:PV4901) substrate in a final assay buffer containing 100 μM ATP and 2 mM DTT diluted in commercially available Kinase Buffer S (Invitrogen PN: PV5213). The final solvent concentration in the assay was 1% DMSO. Reactions were initiated with the addition of 10 ng/well of LRRK2 02019S, GST-tagged protein (Invitrogen PN: PV4882). After incubation of the foil sealed reaction plates at room temperature with low speed mixing for 1 hour, the kinase reaction was stopped and the amount of substrate phosphorylation was detected by addition of 10 μL of 10 mM EDTA and 2 nM Tb-anti-pERM (pLRRKtide antibody, Invitrogen, PN: PV4898) antibody in TR-FRET dilution buffer (Invitrogen PN: PV3574). After a 30 minute incubation at room temperature with low speed mixing, foil seals were removed and measurements were obtained on a PerkinElmer EnVision with excitation 340 nm, emission 520 nm (channel 1): 495 nm (channel 2) settings. Generation of raw data and workup of data to derive the IC50 (potency) and maximal inhibition at concentrations tested were performed using Merck's Assay Data Analyzer (ADA) software.
# T1 sequence (Q5S007 whole entry G2019S): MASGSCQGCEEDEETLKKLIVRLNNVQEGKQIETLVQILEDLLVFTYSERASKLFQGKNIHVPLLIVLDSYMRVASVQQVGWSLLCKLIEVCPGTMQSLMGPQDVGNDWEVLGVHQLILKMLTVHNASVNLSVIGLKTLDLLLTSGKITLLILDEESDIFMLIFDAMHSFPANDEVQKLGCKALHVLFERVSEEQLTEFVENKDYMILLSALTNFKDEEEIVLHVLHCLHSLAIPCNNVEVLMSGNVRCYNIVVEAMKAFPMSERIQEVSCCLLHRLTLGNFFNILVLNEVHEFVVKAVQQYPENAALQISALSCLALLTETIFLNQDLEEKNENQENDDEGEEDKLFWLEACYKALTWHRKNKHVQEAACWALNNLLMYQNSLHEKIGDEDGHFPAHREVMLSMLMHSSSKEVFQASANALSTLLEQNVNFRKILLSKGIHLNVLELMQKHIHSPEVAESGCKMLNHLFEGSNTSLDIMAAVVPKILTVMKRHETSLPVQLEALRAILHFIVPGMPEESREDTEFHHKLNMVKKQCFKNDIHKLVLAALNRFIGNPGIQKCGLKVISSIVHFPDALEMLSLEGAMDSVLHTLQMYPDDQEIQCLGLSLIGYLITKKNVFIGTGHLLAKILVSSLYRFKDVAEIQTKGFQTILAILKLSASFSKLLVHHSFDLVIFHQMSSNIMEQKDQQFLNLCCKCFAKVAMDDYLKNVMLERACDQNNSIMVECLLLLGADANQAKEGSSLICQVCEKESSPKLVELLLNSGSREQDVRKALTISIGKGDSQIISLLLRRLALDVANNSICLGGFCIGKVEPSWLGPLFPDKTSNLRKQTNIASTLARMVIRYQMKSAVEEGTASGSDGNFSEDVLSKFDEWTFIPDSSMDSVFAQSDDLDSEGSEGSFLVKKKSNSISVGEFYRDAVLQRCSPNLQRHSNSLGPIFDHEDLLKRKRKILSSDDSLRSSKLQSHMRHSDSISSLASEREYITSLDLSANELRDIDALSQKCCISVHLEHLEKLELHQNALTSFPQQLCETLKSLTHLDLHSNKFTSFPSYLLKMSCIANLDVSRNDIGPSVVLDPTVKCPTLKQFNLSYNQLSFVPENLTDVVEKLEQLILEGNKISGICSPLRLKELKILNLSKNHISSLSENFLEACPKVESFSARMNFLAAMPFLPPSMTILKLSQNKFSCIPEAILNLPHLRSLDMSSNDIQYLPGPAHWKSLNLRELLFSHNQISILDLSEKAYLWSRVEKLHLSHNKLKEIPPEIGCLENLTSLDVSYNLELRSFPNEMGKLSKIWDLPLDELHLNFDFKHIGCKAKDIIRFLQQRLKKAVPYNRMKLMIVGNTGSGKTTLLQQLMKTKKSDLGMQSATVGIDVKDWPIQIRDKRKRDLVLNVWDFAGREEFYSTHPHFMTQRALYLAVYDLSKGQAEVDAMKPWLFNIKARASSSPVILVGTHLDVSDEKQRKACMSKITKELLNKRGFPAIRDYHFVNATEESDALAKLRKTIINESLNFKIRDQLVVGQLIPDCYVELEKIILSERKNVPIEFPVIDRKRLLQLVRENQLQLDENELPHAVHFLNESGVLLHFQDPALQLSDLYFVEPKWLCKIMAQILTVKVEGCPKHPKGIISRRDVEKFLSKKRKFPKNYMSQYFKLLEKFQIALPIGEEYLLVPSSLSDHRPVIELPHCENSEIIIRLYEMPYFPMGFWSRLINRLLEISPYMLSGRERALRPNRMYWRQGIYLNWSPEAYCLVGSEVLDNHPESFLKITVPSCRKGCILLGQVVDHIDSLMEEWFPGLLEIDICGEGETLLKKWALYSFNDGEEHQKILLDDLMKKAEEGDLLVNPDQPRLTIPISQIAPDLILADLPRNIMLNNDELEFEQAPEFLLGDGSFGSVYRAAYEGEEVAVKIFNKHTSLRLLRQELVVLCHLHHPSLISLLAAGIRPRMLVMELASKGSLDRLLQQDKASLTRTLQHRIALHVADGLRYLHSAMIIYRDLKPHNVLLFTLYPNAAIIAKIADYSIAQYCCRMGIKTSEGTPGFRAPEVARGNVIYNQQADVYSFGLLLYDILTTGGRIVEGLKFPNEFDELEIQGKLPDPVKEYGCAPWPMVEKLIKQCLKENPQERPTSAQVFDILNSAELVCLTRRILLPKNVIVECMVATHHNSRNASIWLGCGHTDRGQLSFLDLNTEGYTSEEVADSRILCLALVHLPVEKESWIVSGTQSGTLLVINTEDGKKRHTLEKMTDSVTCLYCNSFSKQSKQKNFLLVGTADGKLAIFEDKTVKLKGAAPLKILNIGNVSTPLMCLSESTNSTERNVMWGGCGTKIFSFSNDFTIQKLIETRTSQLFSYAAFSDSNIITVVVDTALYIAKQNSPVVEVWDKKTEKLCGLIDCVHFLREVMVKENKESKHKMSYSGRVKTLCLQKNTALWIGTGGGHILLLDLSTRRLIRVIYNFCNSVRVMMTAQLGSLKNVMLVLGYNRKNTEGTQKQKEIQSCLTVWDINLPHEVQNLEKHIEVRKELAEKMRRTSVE
row,SMILES,IC50 [nM]
1,"CC1(C)CC(=O)c2c(SC3CCCC3)sc(-c3ccn(C(=O)NC(C)(C)C)n3)c2C1 [Example 70, N-tert-Butyl-3-[3-(cyclopentylsulfanyl)-6,6-dimethyl-4-oxo-4,5,6,7-tetrahydro-2-benzothiophen-1-yl]-1H-pyrazole-1-carboxamide]",1300
2,"CCC(C)NC(=O)n1ccc(-c2sc(SC3CCCC3)c3c2CC(C)(C)CC3=O)n1 (centres unmarked) [Example 71, N-(Butan-2-yl)-3-[3-(cyclopentylsulfanyl)-6,6-dimethyl-4-oxo-4,5,6,7-tetrahydro-2-benzothiophen-1-yl]-1H-pyrazole-1-carboxamide]",1700
3,"CNC(=O)n1ccc(-c2sc(SC3CCCC3)c3c2CC(C)(C)CC3=O)n1 [Example 72, 3-[3-(Cyclopentylsulfanyl)-6,6-dimethyl-4-oxo-4,5,6,7-tetrahydro-2-benzothiophen-1-yl]-N-methyl-1H-pyrazole-1-carboxamide]",1700
4,"CC1(C)CC(=O)c2c(NC3CCCC3)sc(-c3ccn(C(=O)Nc4ccc(Cl)cc4)n3)c2C1 [Example 73, N-(4-Chlorophenyl)-3-[3-(cyclopentylamino)-6,6-dimethyl-4-oxo-4,5,6,7-tetrahydro-2-benzothiophen-1-yl]-1H-pyrazole-1-carboxamide]",280
5,"CC1(C)CC(=O)c2c(NC3CCCC3)sc(-c3ccn(C(=O)Nc4ccc(C#N)cc4)n3)c2C1 [Example 74, N-(4-Cyanophenyl)-3-[3-(cyclopentylamino)-6,6-dimethyl-4-oxo-4,5,6,7-tetrahydro-2-benzothiophen-1-yl]-1H-pyrazole-1-carboxamide]",190
6,"CC1(C)CC(=O)c2c(NC3CCCC3)sc(-c3ccn(C(=O)Nc4ccncc4)n3)c2C1 [Example 75, 3-[3-(Cyclopentylamino)-6,6-dimethyl-4-oxo-4,5,6,7-tetrahydro-2-benzothiophen-1-yl]-N-(pyridin-4-yl)-1H-pyrazole-1-carboxamide]",720
7,"CCCC(=O)n1ccc(-c2sc(SC3CCCC3)c3c2CC(C)(C)CC3=O)n1 [Example 76, 1-(1-Butanoyl-1H-pyrazol-3-yl)-3-(cyclopentylsulfanyl)-6,6-dimethyl-6,7-dihydro-2-benzothiophen-4(5H)-one]",980
8,"CC1(C)CC(=O)c2c(SC3CCCC3)sc(-c3ccn(C(=O)c4ccc(C#N)cc4)n3)c2C1 [Example 77, 4-({3-[3-(Cyclopentylsulfanyl)-6,6-dimethyl-4-oxo-4,5,6,7-tetrahydro-2-benzothiophen-1-yl]-1H-pyrazol-1-yl}carbonyl)benzonitrile]",260
9,"CC(C)C(=O)n1ccc(-c2sc(SC3CCCC3)c3c2CC(C)(C)CC3=O)n1 [Example 78, 3-(Cyclopentylsulfanyl)-6,6-dimethyl-1-[1-(2-methylpropanoyl)-1H-pyrazol-3-yl]-6,7-dihydro-2-benzothiophen-4(5H)-one]",1500
10,"CC1(C)CC(=O)c2c(SC3CCCC3)sc(-c3ccn(C(=O)Cc4ccc(Cl)cc4)n3)c2C1 [Example 79, 1-{1-[(4-Chlorophenyl)acetyl]-1H-pyrazol-3-yl}-3-(cyclopentylsulfanyl)-6,6-dimethyl-6,7-dihydro-2-benzothiophen-4(5H)-one]",600
11,"CC1(C)CC(=O)c2c(SC3CCCC3)sc(-c3ccn(C(=O)c4ccc(Cl)nc4)n3)c2C1 [Example 80, 1-{1-[(6-Chloropyridin-3-yl)carbonyl]-1H-pyrazol-3-yl}-3-(cyclopentylsulfanyl)-6,6-dimethyl-6,7-dihydro-2-benzothiophen-4(5H)-one]",570
12,"CC1(C)CC(=O)c2c(SC3CCCC3)sc(-c3ccn(C(=O)c4ccc(F)cc4)n3)c2C1 [Example 81, 3-(Cyclopentylsulfanyl)-1-{1-[(4-fluorophenyl)carbonyl]-1H-pyrazol-3-yl}-6,6-dimethyl-6,7-dihydro-2-benzothiophen-4(5H)-one]",970
13,"COc1ccc(C(=O)n2ccc(-c3sc(SC4CCCC4)c4c3CC(C)(C)CC4=O)n2)cc1 [Example 82, 3-(Cyclopentylsulfanyl)-1-{1-[(4-methoxyphenyl)carbonyl]-1H-pyrazol-3-yl}-6,6-dimethyl-6,7-dihydro-2-benzothiophen-4(5H)-one]",3400
14,"CC1(C)CC(=O)c2c(SC3CCCC3)sc(-c3ccn(C(=O)C4CCCCC4)n3)c2C1 [Example 83, 1-[1-(Cyclohexylcarbonyl)-1H-pyrazol-3-yl]-3-(cyclopentylsulfanyl)-6,6-dimethyl-6,7-dihydro-2-benzothiophen-4(5H)-one]",4000
15,"CC1(C)CC(=O)c2c(SC3CCCC3)sc(-c3ccn(C(=O)c4ccc(F)c(F)c4)n3)c2C1 [Example 84, 3-(Cyclopentylsulfanyl)-1-{1-[(3,4-difluorophenyl)carbonyl]-1H-pyrazol-3-yl}-6,6-dimethyl-6,7-dihydro-2-benzothiophen-4(5H)-one]",400
16,"CSc1sc(-c2ccn(C(=O)OC(C)(C)C)n2)c2c1C(=O)CCC2 [Example 85, tert-Butyl 3-[3-(methylsulfanyl)-4-oxo-4,5,6,7-tetrahydro-2-benzothiophen-1-yl]-1H-pyrazole-1-carboxylate]",1100
17,"O=C1CCCc2c(-c3ccn(C(=O)Nc4ccc(Cl)cc4)n3)sc(SC3CCCC3)c21 [Example 86, N-(4-chlorophenyl)-3-[3-(cyclopentylsulfanyl)-4-oxo-4,5,6,7-tetrahydro-2-benzothiophen-1-yl]-1H-pyrazole-1-carboxamide]",66
18,"N#Cc1ccc(NC(=O)n2ccc(-c3sc(NC4CCCC4)c4c3CCCC4=O)n2)cc1 [Example 87, N-(4-cyanophenyl)-3-[3-(cyclopentylamino)-4-oxo-4,5,6,7-tetrahydro-2-benzothiophen-1-yl]-1H-pyrazole-1-carboxamide]",330
19,"CSc1sc(-c2cc(C)[nH]n2)c2c1C(=O)CC(C)(C)C2 [Example 88, 6,6-Dimethyl-1-(5-methyl-1H-pyrazol-3-yl)-3-(methylsulfanyl)-6,7-dihydro-2-benzothiophen-4(5H)-one]",1400
20,"CSc1sc(-c2cc(C3CC3)[nH]n2)c2c1C(=O)CC(C)(C)C2 [Example 89, 1-(5-Cyclopropyl-1H-pyrazol-3-yl)-6,6-dimethyl-3-(methylsulfanyl)-6,7-dihydro-2-benzothiophen-4(5H)-one]",470
21,"CCc1cc(-c2sc(SC)c3c2CC(C)(C)CC3=O)n[nH]1 [Example 90, 1-(5-Ethyl-1H-pyrazol-3-yl)-6,6-dimethyl-3-(methylsulfanyl)-6,7-dihydro-2-benzothiophen-4(5H)-one]",450
22,"CSc1sc(-c2cc[nH]n2)c2c1C(=O)C(C)CC2 (centres unmarked) [Example 91, 5-Methyl-3-(methylsulfanyl)-1-(1H-pyrazol-3-yl)-6,7-dihydro-2-benzothiophen-4(5H)-one]",150
23,"CCCC1CCc2c(-c3cc[nH]n3)sc(SC)c2C1=O (centres unmarked) [Example 92, 3-(Methylsulfanyl)-5-propyl-1-(1H-pyrazol-3-yl)-6,7-dihydro-2-benzothiophen-4(5H)-one]",310
